This note sets out measurements from US6133294A (priority 1999, dated 2000).

The structures appear in SMILES notation.

What all share (assay type): in vivo
One assay concerns Leptosphaeria nodorum. Kind of assay: Glume blotch of wheat (Leptosphaeria nodorum--LEPTNO). The following applies: wheat (cultivar Monon), 100 ppm spray to run off, inoculated after 24 hours. The procedure, abridged:
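Wheat seedlings (cv. Monon, 1-2 leaf, BBCH 12) sprayed to run-off at 100 ppm; compound in acetone diluted with nine volumes 0.05% aqueous Tween-20 or Triton X-100. Spore inoculation with Leptosphaeria nodorum after 24 hours; disease rated in greenhouse once untreated controls developed symptoms.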

A further assay has as its system Puccinia recondita. Kind of assay: Brown rust (Puccinia recondita--PUCCRT). The following applies: wheat (cultivar Monon), 100 ppm spray to run off, inoculated after 24 hours. A digest of the protocol: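 Wheat (cv. Monon) seedlings were sprayed to run-off at 100 ppm, with compound in acetone diluted with nine volumes of 0.05% aqueous Tween-20 or Triton X-100. Plants were inoculated with Puccinia recondita spores 24 h later.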

The next assay concerns Phytophthora infestans. The assay can be described thus: whole plant or invertebrate.
Another assay concerns Erysiphe graminis. Kind of assay: Powdery Mildew of Wheat (Erysiphe graminis--ERYSGT). The following applies: wheat (cultivar Monon), 100 ppm spray to run off, inoculated after 24 hours. The procedure, abridged:
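Wheat seedlings (cv. Monon, 1-2 leaf stage) were sprayed to run-off at 100 ppm, from acetone solution diluted with nine volumes 0.05% aqueous Tween-20 or Triton X-100. Control rated on a scale.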

Regarding `CNC(=O)C(=NOC)c1cccc(C)c1COc1ncc(-c2noc(C(F)(F)F)n2)cc1Cl` [Example 35], the “control of plant disease, LEPTNO 1DP” value in the assay with Leptosphaeria nodorum is given as “++ (75-100% control of plant disease)”. Moreover, the “control of plant disease, PUCCRT 1DP” value in the assay with Puccinia recondita is given as “++ (75-100% control of plant disease)”. Besides, the “control of plant disease, PHYTIN 1DP” value in the assay with Phytophthora infestans (tomatoes (cultivar Rutgers), 100 ppm spray to run off, inoculated after 24 hours, 1DP) is given as “- (0-24% control of plant disease)”. In addition, the “control of plant disease, ERYSGT 1DP” value in the assay on Erysiphe graminis was “++ (75-100% control of plant disease)”.

Turning to `CNC(=O)C(=NOC)c1ccccc1COc1ncc(-c2noc(C(C)C)n2)cc1Cl` [Example 37], the pest or weed control at 100 ppm with Leptosphaeria nodorum (Parastagonospora nodorum, 1DP, read-out: control of plant disease, LEPTNO 1DP) was in the range of 75 to 100%; in the assay on Puccinia recondita (Puccinia recondita, 1DP, read-out: control of plant disease, PUCCRT 1DP), 75 to 100%; in the assay with Phytophthora infestans (Phytophthora infestans, 24 h, read-out: control of plant disease, PHYTIN 1DP) it was 0 to 24%; in the assay on Erysiphe graminis (Blumeria graminis, 1DP, read-out: control of plant disease, ERYSGT 1DP), 75 to 100%.
